Assay results reported in US6599930B2, “Coniosetin and derivatives thereof, process for the preparation and the use thereof” (Aventis Pharma Deutschland GmbH, priority 2000, dated 2003).
Converted amounts (≈) assume the structure as drawn. Where two headings read alike, the source gives them in different places.

Experiments:
[1] = test system: Aspergillus niger; experiment: Agar diffusion test; format: cell-based; settings: for zone of inhibition at 10000 µM: 40 h, A. niger, 28° C., 40 hours, read-out: Zone of inhibition, diameter
Procedure: (§1) Agar plates were prepared with a 2 ml inoculum of Staphylococcus aureus in 200 ml of agar solution, a 2 ml inoculum of Escherichia coli in 200 ml of agar; a 2 ml inoculum of Candida albicans in 200 ml of agar solution; a 1 ml inoculum of Aspergillus niger in 200 ml of agar solution and a 3 ml inoculum of Streptomyces murinus in 200 ml of agar solution. The coniosetin was applied in a 10 mM solution to disks with a diameter of 6 mm and placed on the agar plate. The inoculated Staphylococcus, E. coli and Candida plates were incubated at 37° C. for 16 hours, the A. niger plate was incubated at 28° C. for 40 hours, and the Streptomyces plate was incubated at 28° C. for 16 hours. Zones of inhibition with the following diameters (mm) were then observed.

[2] = test system: Streptomyces murinus; experiment: Agar diffusion test; format: cell-based; settings: 16 h, S. murinus, 28° C., read-out: Zone of inhibition, diameter
Procedure: as §1

[3] = test system: Escherichia coli; experiment: Agar diffusion test; format: cell-based; settings: E. coli, 37° C., 16 hours
Procedure: as §1

[4] = test system: Staphylococcus aureus; experiment: Agar diffusion test; format: cell-based; settings: 16 h, S. aureus, 37° C., read-out: Zone of inhibition, diameter
Procedure: as §1

[5] = test system: Candida albicans; experiment: Agar diffusion test; format: cell-based; settings: for zone of inhibition at 10000 µM: 16 h, C. albicans, 37° C., 16 hours, read-out: Zone of inhibition, diameter
Procedure: as §1

[6] = test system: S. epidermidis; experiment: MIC, serial dilution test; format: cell-based; settings: Staphylococcus epidermidis
Description: (§2) Table 1 summarizes the minimum inhibitory concentrations (MIC) of coniosetin by way of example.

[7] = test system: Enterococcus faecium; experiment: MIC, serial dilution test; format: cell-based; settings: teiR vanR eryR tetR
Description: as §2

[8] = test system: S. mitis; experiment: MIC, serial dilution test; format: cell-based; settings: Streptococcus mitis
Description: as §2

[9] = test system: S. agalactiae; experiment: MIC, serial dilution test; format: cell-based; settings: Streptococcus agalactiae, ery R
Description: as §2

[10] = test system: S. pneumoniae; experiment: MIC, serial dilution test; format: cell-based; settings: Streptococcus pneumoniae
Description: as §2

[11] = test system: Escherichia coli; experiment: MIC, serial dilution test; format: cell-based; settings: 18 h
Description: as §2

[12] = test system: S. pyogenes; experiment: MIC, serial dilution test; format: cell-based; settings: Streptococcus pyogenes
Description: as §2

[13] = test system: S. sanguis; experiment: MIC, serial dilution test; format: cell-based; settings: ery R
Description: as §2

[14] = test system: Streptococcus gr. G; experiment: MIC, serial dilution test; format: cell-based
Description: as §2

[15] = test system: Staphylococcus aureus; experiment: MIC, serial dilution test; format: cell-based
Description: as §2

[16] = test system: Enterococcus faecalis; experiment: MIC, serial dilution test; format: cell-based
Description: as §2

[17] = Stability in solution; format: physicochemical
[18] = test system: bacteria; experiment: Antibacterial effect, general statements; format: cell-based; settings: general statement
[19] = Solubility; format: physicochemical
[20] = Tolerability; settings: at the effective concentration and at higher concentrations
[21] = test system: bacteria; settings: as described in the cited literature; cited from earlier work
[22] = 10 μl of 10 mM solution on 6 mm disk
[23] = 20 μl of 10 mM solution on 6 mm disk
[24] = 40 μl of 10 mM solution on 6 mm disk
[25] = compared with the antibacterial effect (Example 8)

C/C=C/C=C/C1C(C)=CC2CC(C)CCC2C1(C)/C(O)=C1\C(=O)NC(C(C)O)C1=O (centres unmarked) [coniosetin]
zone of inhibition at 10000 µM [1, 22]: 0 mm
zone of inhibition at 10000 µM [1, 23]: 0 mm
zone of inhibition at 10000 µM [1, 24]: 8 mm
Inhibitory effect on fungi [1, 25]: inhibitory effect—although weaker
zone of inhibition at 10000 µM [2, 22]: 0 mm
zone of inhibition at 10000 µM [2, 23]: 9 mm
zone of inhibition at 10000 µM [2, 24]: 10 mm
Zone of inhibition, diameter [3, 23]: 0 mm
Zone of inhibition, diameter [3, 24]: 0 mm
zone of inhibition at 10000 µM ([3]; Escherichia coli, 10 μl of 10 mM solution on 6 mm disk, read-out: Zone of inhibition, diameter): 0 mm
zone of inhibition at 10000 µM [4, 22]: 13 mm
zone of inhibition at 10000 µM [4, 23]: 14.5 mm
zone of inhibition at 10000 µM [4, 24]: 15.5 mm
zone of inhibition at 10000 µM [5, 22]: 9 mm
zone of inhibition at 10000 µM [5, 23]: 10 mm
zone of inhibition at 10000 µM [5, 24]: 10.5 mm
Inhibitory effect on yeasts [5, 25]: inhibitory effect—although weaker
MIC ([6]; 18 h, oxa R ery R, after 18 h): 0.6 µg/mL (≈ 1.45 µM)
MIC ([6]; 18 h, oxa S ery R, after 18 h): 0.3 µg/mL (≈ 0.725 µM)
MIC ([6]; 24 h, oxa R ery R): 1.2 µg/mL (≈ 2.9 µM)
MIC ([6]; 24 h, oxa S ery R): 0.3 µg/mL (≈ 0.725 µM)
MIC ([6]; 48 h, oxa R ery R): 1.2 µg/mL (≈ 2.9 µM)
MIC ([6]; 48 h, oxa S ery R): 0.3 µg/mL (≈ 0.725 µM)
MIC ([7]; 24 h): 1.2 µg/mL (≈ 2.9 µM)
MIC ([7]; 48 h): 2.5 µg/mL (≈ 6.05 µM)
MIC ([7]; after 18 h): 1.2 µg/mL (≈ 2.9 µM)
MIC ([8]; 18 h, ery R, after 18 h): 2.5 µg/mL (≈ 6.05 µM)
MIC ([8]; 18 h, ery S, after 18 h): 1.2 µg/mL (≈ 2.9 µM)
MIC ([8]; 24 h, ery R): 2.5 µg/mL (≈ 6.05 µM)
MIC ([8]; 24 h, ery S): 2.5 µg/mL (≈ 6.05 µM)
MIC ([8]; 48 h, ery R): 2.5 µg/mL (≈ 6.05 µM)
MIC ([8]; 48 h, ery S): 2.5 µg/mL (≈ 6.05 µM)
MIC ([9]; 24 h): 2.5 µg/mL (≈ 6.05 µM)
MIC ([9]; 48 h): 2.5 µg/mL (≈ 6.05 µM)
MIC ([9]; after 18 h): 2.5 µg/mL (≈ 6.05 µM)
MIC ([10]; 18 h, ery R (first listed strain), after 18 h): 0.6 µg/mL (≈ 1.45 µM)
MIC ([10]; 18 h, ery R (second listed strain), after 18 h): 0.6 µg/mL (≈ 1.45 µM)
MIC ([10]; 18 h, ery R (third listed strain), after 18 h): 0.6 µg/mL (≈ 1.45 µM)
MIC ([10]; 18 h, ery R pen R (first listed strain), after 18 h): 0.6 µg/mL (≈ 1.45 µM)
MIC ([10]; 18 h, ery R pen R (second listed strain), after 18 h): 0.6 µg/mL (≈ 1.45 µM)
MIC ([10]; 18 h, ery S pen R, after 18 h): 0.6 µg/mL (≈ 1.45 µM)
MIC ([10]; 18 h, ery S, after 18 h): 0.6 µg/mL (≈ 1.45 µM)
MIC ([10]; 24 h, ery R (first listed strain)): 0.6 µg/mL (≈ 1.45 µM)
MIC ([10]; 24 h, ery R (second listed strain)): 0.6 µg/mL (≈ 1.45 µM)
MIC ([10]; 24 h, ery R (third listed strain)): 0.6 µg/mL (≈ 1.45 µM)
MIC ([10]; 24 h, ery R pen R (first listed strain)): 0.6 µg/mL (≈ 1.45 µM)
MIC ([10]; 24 h, ery R pen R (second listed strain)): 0.6 µg/mL (≈ 1.45 µM)
MIC ([10]; 24 h, ery S): 0.6 µg/mL (≈ 1.45 µM)
MIC ([10]; 24 h, ery S pen R): 1.2 µg/mL (≈ 2.9 µM)
MIC ([10]; 48 h, ery R (first listed strain)): 0.6 µg/mL (≈ 1.45 µM)
MIC ([10]; 48 h, ery R (second listed strain)): 0.6 µg/mL (≈ 1.45 µM)
MIC ([10]; 48 h, ery R (third listed strain)): 1.2 µg/mL (≈ 2.9 µM)
MIC ([10]; 48 h, ery R pen R (first listed strain)): 0.6 µg/mL (≈ 1.45 µM)
MIC ([10]; 48 h, ery R pen R (second listed strain)): 0.6 µg/mL (≈ 1.45 µM)
MIC ([10]; 48 h, ery S): 0.6 µg/mL (≈ 1.45 µM)
MIC ([10]; 48 h, ery S pen R): 1.2 µg/mL (≈ 2.9 µM)
MIC [11]: > 40 µg/mL
MIC ([12]; 18 h, ery R, after 18 h): 1.2 µg/mL (≈ 2.9 µM)
MIC ([12]; 18 h, ery S, after 18 h): 0.6 µg/mL (≈ 1.45 µM)
MIC ([12]; 24 h, ery R): 1.2 µg/mL (≈ 2.9 µM)
MIC ([12]; 24 h, ery S): 1.2 µg/mL (≈ 2.9 µM)
MIC ([12]; 48 h, ery R): 1.2 µg/mL (≈ 2.9 µM)
MIC ([12]; 48 h, ery S): 1.2 µg/mL (≈ 2.9 µM)
MIC ([13]; 24 h): 1.2 µg/mL (≈ 2.9 µM)
MIC ([13]; 48 h): 2.5 µg/mL (≈ 6.05 µM)
MIC ([13]; after 18 h): 1.2 µg/mL (≈ 2.9 µM)
MIC ([14]; 18 h, ery R, after 18 h): 0.6 µg/mL (≈ 1.45 µM)
MIC ([14]; 18 h, ery S, after 18 h): 1.2 µg/mL (≈ 2.9 µM)
MIC ([14]; 24 h, ery R): 0.6 µg/mL (≈ 1.45 µM)
MIC ([14]; 24 h, ery S): 1.2 µg/mL (≈ 2.9 µM)
MIC ([14]; 48 h, ery R): 0.6 µg/mL (≈ 1.45 µM)
MIC ([14]; 48 h, ery S): 1.2 µg/mL (≈ 2.9 µM)
MIC ([15]; 18 h, S. aureus, oflR oxaR eryR tetR, after 18 h): 0.6 µg/mL (≈ 1.45 µM)
MIC ([15]; 18 h, S. aureus, oxa R ery R, after 18 h): 0.3 µg/mL (≈ 0.725 µM)
MIC ([15]; 18 h, S. aureus, oxa S ery R (first listed strain), after 18 h): 0.3 µg/mL (≈ 0.725 µM)
MIC ([15]; 18 h, S. aureus, oxa S ery R (second listed strain), after 18 h): 0.6 µg/mL (≈ 1.45 µM)
MIC ([15]; 18 h, S. aureus, oxaR eryR tetR, after 18 h): 0.3 µg/mL (≈ 0.725 µM)
MIC ([15]; 18 h, ery S, after 18 h): 0.3 µg/mL (≈ 0.725 µM)
MIC ([15]; 24 h, S. aureus, oflR oxaR eryR tetR): 0.6 µg/mL (≈ 1.45 µM)
MIC ([15]; 24 h, S. aureus, oxa R ery R): 0.3 µg/mL (≈ 0.725 µM)
MIC ([15]; 24 h, S. aureus, oxa S ery R (first listed strain)): 0.3 µg/mL (≈ 0.725 µM)
MIC ([15]; 24 h, S. aureus, oxa S ery R (second listed strain)): 0.6 µg/mL (≈ 1.45 µM)
MIC ([15]; 24 h, S. aureus, oxaR eryR tetR): 0.3 µg/mL (≈ 0.725 µM)
MIC ([15]; 24 h, ery S): 0.3 µg/mL (≈ 0.725 µM)
MIC ([15]; 48 h, S. aureus, oflR oxaR eryR tetR): 0.6 µg/mL (≈ 1.45 µM)
MIC ([15]; 48 h, S. aureus, oxa R ery R): 0.3 µg/mL (≈ 0.725 µM)
MIC ([15]; 48 h, S. aureus, oxa S ery R (first listed strain)): 0.3 µg/mL (≈ 0.725 µM)
MIC ([15]; 48 h, S. aureus, oxa S ery R (second listed strain)): 0.6 µg/mL (≈ 1.45 µM)
MIC ([15]; 48 h, S. aureus, oxaR eryR tetR): 0.3 µg/mL (≈ 0.725 µM)
MIC ([15]; 48 h, ery S): 0.6 µg/mL (≈ 1.45 µM)
MIC ([16]; ery R, 24 h): 2.5 µg/mL (≈ 6.05 µM)
MIC ([16]; ery R, 48 h): 2.5 µg/mL (≈ 6.05 µM)
MIC ([16]; ery R, after 18 h): 2.5 µg/mL (≈ 6.05 µM)
MIC ([16]; ery S, 24 h, read-out: MIC): 2.5 µg/mL (≈ 6.05 µM)
MIC ([16]; ery S, 48 h, read-out: MIC): 2.5 µg/mL (≈ 6.05 µM)
MIC ([16]; ery S, after 18 h, read-out: MIC): 2.5 µg/mL (≈ 6.05 µM)
Stability ([17]; neutral and weakly acidic media): Stable
Stability ([17]; strongly acidic and strongly alkaline solution): unstable
Antibacterial effect [18]: very good antibacterial activity
Solubility in organic solvents ([19]; organic solvents of medium polarity and above): soluble
Solubility in water ([19]; water): low solubility
Tolerability [20]: well-tolerated

CCCCCCC/C=C/C(=O)N1C(O)=C(C(C)=O)C(=O)[C@H]1CC(C)C [reutericyclin]
Antibacterial activity [21]: weak antibacterial activity

harzianic acid
Antibacterial activity [21]: very low activity
